The record followed here is patent publication US9725465B2, “Biaryl acetamide compounds and methods of use thereof” (Ambit Biosciences Corporation, priority 2013, dated 2017).

In one experiment the target is FLT3 kinase (Homo sapiens (Human), UniProt P36888). Nature of the experiment: Competition binding assay (Kd), FLT3. The note with it: competition binding assay.
The target of another experiment is FLT3-ITD (Homo sapiens (Human), UniProt P36888, INS600HVDFREYEYD). Nature of the experiment: pFLT3 MSD assay, Ba/F3 FLT3-ITD. The format is cell-based. The note with it: Ba/F3 FLT3-ITD cells, 2 hours, read-out: BaF3-FLT3-ITD pFlt3 IC50.
The target in another experiment is KIT kinase (Homo sapiens (Human), UniProt P10721). Nature of the experiment: Competition binding assay (Kd), KIT. The settings on record: competition binding assay. In a few lines: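 Kinase, as T7 phage fusion or HEK-293-expressed DNA-tagged protein, competed off immobilised ligand beads by test compound (eleven-point threefold dilutions, from 100× DMSO stocks). Eluted kinase quantified by qPCR to derive Kd; DMSO used as control.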
Sequence of KIT kinase (P10721 26-976): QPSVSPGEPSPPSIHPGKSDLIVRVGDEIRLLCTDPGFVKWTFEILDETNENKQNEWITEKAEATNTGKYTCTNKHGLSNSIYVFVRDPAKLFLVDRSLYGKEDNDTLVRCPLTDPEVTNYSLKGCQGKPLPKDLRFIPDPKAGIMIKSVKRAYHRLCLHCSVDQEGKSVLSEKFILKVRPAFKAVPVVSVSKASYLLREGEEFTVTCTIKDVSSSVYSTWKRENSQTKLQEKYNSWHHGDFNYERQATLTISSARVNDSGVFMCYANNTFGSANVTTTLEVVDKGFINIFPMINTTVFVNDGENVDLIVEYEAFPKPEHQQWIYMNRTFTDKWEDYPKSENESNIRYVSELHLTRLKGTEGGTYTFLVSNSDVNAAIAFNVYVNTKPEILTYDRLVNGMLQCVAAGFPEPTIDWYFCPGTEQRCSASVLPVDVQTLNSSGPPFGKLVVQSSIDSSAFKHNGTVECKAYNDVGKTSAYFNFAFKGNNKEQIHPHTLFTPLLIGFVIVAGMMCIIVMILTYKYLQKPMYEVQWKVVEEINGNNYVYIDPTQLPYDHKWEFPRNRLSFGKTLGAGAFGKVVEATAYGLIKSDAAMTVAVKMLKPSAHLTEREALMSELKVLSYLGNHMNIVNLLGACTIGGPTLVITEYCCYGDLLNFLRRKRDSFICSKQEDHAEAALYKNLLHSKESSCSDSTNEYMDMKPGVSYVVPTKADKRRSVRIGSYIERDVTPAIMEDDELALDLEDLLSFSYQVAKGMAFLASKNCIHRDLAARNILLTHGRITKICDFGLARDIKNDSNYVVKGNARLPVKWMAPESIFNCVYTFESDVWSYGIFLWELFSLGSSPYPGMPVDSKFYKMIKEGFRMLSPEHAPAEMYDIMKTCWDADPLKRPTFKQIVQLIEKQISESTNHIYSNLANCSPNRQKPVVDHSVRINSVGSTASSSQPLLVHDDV

Sequence of FLT3-ITD (P36888 other isoform, or with tags, fused parts or gaps limits assumed, stated change not applied): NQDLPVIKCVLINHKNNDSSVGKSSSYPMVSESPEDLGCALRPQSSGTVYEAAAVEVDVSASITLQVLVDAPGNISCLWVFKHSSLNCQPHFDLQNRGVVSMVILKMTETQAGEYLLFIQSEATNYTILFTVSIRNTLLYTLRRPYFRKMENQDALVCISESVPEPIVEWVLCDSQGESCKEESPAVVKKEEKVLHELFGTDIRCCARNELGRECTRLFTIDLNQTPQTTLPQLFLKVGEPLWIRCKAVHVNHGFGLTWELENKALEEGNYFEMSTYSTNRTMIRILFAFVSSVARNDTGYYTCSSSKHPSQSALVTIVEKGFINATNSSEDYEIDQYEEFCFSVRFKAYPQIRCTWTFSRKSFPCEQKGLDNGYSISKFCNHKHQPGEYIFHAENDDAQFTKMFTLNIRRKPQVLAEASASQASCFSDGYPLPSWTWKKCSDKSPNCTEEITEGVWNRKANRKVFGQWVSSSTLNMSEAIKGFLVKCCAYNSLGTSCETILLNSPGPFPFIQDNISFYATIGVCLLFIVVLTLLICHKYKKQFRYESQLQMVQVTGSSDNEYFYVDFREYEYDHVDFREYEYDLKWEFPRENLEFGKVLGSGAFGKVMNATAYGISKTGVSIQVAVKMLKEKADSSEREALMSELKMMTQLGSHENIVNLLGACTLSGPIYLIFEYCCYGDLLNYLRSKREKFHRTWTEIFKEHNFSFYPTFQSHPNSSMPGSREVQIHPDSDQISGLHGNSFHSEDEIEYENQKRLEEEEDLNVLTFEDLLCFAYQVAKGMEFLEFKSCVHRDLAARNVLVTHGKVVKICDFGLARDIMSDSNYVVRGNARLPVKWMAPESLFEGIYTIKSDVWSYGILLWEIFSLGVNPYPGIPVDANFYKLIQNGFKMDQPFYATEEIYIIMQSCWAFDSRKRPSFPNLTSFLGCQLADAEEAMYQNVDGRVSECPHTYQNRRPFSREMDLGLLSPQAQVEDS
Sequence of FLT3 kinase (P36888 27-993): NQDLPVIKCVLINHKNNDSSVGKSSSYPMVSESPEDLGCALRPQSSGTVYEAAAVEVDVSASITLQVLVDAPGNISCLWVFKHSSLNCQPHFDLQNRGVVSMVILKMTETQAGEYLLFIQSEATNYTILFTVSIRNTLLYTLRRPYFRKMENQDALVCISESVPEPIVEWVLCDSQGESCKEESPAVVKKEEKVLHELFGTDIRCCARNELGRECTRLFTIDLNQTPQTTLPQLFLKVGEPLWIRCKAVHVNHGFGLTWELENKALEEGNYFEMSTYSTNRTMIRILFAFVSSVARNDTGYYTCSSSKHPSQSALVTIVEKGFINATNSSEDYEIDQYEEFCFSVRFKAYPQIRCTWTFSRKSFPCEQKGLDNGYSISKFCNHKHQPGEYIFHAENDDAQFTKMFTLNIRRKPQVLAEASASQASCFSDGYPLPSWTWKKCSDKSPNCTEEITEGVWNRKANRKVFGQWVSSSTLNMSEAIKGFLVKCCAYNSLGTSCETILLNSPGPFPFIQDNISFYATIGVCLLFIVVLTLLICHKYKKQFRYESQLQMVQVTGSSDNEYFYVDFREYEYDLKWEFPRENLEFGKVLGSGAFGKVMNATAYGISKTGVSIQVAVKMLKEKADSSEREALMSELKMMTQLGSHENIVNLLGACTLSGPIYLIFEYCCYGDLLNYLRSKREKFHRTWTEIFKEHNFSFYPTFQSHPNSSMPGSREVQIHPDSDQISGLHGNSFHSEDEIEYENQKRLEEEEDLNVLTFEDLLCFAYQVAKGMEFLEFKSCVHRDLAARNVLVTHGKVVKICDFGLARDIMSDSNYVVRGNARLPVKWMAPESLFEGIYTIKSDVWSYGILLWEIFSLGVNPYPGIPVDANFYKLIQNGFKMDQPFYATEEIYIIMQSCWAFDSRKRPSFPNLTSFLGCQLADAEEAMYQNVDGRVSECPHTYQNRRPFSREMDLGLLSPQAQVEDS
Description for FLT3-ITD: In certain other embodiments, the compounds disclosed herein are tested in a FLT3 phosphorylation assay to determine their cellular potency against one or both of FLT3-ITD and FLT3 tyrosine kinase domain mutants. In certain embodiments, the FLT3 phosphorylation assay assesses the potency of compounds as FLT3 inhibitors by measuring the reduction in formation of phosphorylated FLT3 in the cells.
Gene constructs containing the human FLT3 sequences FLT3-ITD, FLT3-ITD-F691L, FLT3-ITD-D835V and FLT3-D835V were synthesized by reverse translation of the human protein sequences, with codons optimized for mammalian expression. Sequence of the internal tandem duplication (ITD) was based on the MV4-11 ITD sequence. […] Viruses were transduced into the IL-3-dependent, murine macrophage cell line, Ba/F3, and selected for puromycin resistance and IL-3 independence. All cell lines were cloned by limiting dilution and clones were used for all subsequent cell assays.
Briefly, cell lines were serum starved overnight in media containing 0.5% FBS. Cells were plated at 200,000 cells/well in 96-well round bottom plates in low serum, and 3-fold serial dilutions of test compounds were added for 2 hours at 37° C. […] After an overnight incubation at 4° C. shaking at 450 rpm, plates were washed with MSD wash buffer, and captured FLT3 was detected with biotinylated-anti-phosphotyrosine antibody 4G10 (Millipore) and SulfoTAG-streptavidin (MSD) for 1 hour at room temperature, and read on an MSD SECTOR Imager 6000. Percent remaining phospho-FLT3 in compound-treated cells was normalized to DMSO-treated cells, and IC50s were determined using Igor Pro software. All compounds are assayed in duplicate cell and MSD plates.

For orientation: Kd means a measure of binding affinity in units of concentration. A higher Kd goes with lower affinity. As a reminder, the IC50 is the concentration at which inhibition is half-maximal. As for `COc1cc2ncc(-c3ccc(CC(=O)Nc4cc(C5(C(F)(F)F)CC5)on4)c(F)c3)nc2cc1OCc1ccccc1` [Example 156, 2-[4-(7-benzyloxy-6-methoxy-quinoxalin-2-yl)-2-fluoro-phenyl]-N-[5-[1-(trifluoromethyl)cyclo-propyl]isoxazol-3-yl]acetamide], the Kd on FLT3 kinase and at KIT kinase was above 50 nM throughout. On FLT3-ITD, the IC50 is below 10 nM.

With `COc1cc2ncc(-c3ccc(CC(=O)Nc4cc(C5(C(F)(F)F)CC5)on4)c(F)c3)nc2cc1O` [Example 157, 2-[2-fluoro-4-(7-hydroxy-6-methoxy-quinoxalin-2-yl)phenyl]-N-[5-[1-(trifluoro-methyl)cyclopropyl]isoxazol-3-yl]acetamide], the Kd on FLT3 kinase and at KIT kinase was below 5 nM throughout. In addition, the IC50 on FLT3-ITD is below 10 nM.

Turning to `COc1cc2ncc(-c3ccc(CC(=O)Nc4cc(C5(C(F)(F)F)CC5)on4)c(F)c3)nc2cc1OCCN(C)C` [Example 158, 2-[4-[7-[2-(dimethylamino)ethoxy]-6-methoxy-quinoxalin-2-yl]-2-fluoro-phenyl]-N-[5-[1-(trifluoromethyl)cyclo-propyl]isoxazol-3-yl]acetamide], the Kd at FLT3 kinase and at KIT kinase was below 5 nM in each case. Further, the IC50 on FLT3-ITD is below 10 nM.

Take `COCCOc1cc2ncc(-c3ccc(CC(=O)Nc4cc(C(C)(C)C(F)(F)F)on4)c(F)c3)nc2cc1OC` [Example 159, 2-[2-fluoro-4-[7-methoxy-6-(2-methoxy-ethoxy)quinoxalin-2-yl]phenyl]-N-[5-(2,2,2-trifluoro-1,1-dimethyl-ethyl)isoxazol-3-yl]acetamide]: the Kd on FLT3 kinase and on KIT kinase was below 5 nM in each case. Besides, at FLT3-ITD, the IC50 was below 10 nM.

On to `COCCOc1cc2nc(-c3ccc(CC(=O)Nc4cc(C(C)(C)C(F)(F)F)on4)c(F)c3)cnc2cc1OC` [Example 160, 2-[2-fluoro-4-[6-methoxy-7-(2-methoxy-ethoxy)quinoxalin-2-yl]phenyl]-N-[5-(2,2,2-trifluoro-1,1-dimethyl-ethyl)isoxazol-3-yl]acetamide], for which the Kd at FLT3 kinase and at KIT kinase was below 5 nM in each case. Besides, the IC50 on FLT3-ITD was below 10 nM.

For `COCCOc1cc2nc(-c3ccc(CC(=O)Nc4cc(C(C)(C)C)nn4C)c(F)c3)cnc2cc1OC` [Example 161, N-(5-tert-butyl-2-methyl-pyrazol-3-yl)-2-[2-fluoro-4-[6-methoxy-7-(2-methoxyethoxy)quinoxalin-2-yl]phenyl]acetamide], the Kd at FLT3 kinase and at KIT kinase was below 5 nM each time. At FLT3-ITD, the IC50 is below 10 nM.

Take `COCCOc1cc2ncc(-c3ccc(CC(=O)Nc4cc(C(C)(C)C)nn4C)c(F)c3)nc2cc1OC` [Example 162, N-(5-tert-butyl-2-methyl-pyrazol-3-yl)-2-[2-fluoro-4-[7-methoxy-6-(2-methoxyethoxy)quinoxalin-2-yl]phenyl]acetamide]: the Kd at FLT3 kinase and on KIT kinase was below 5 nM each time. Also, on FLT3-ITD, the IC50 is below 10 nM.

As for `COc1cc2nc(-c3ccc(CC(=O)Nc4cc(C5(C(F)(F)F)CC5)on4)c(F)c3)cnc2cc1OCc1ccccc1` [Example 163, 2-[4-(6-benzyloxy-7-methoxy-quinoxalin-2-yl)-2-fluoro-phenyl]-N-[5-[1-(trifluoromethyl)cyclo-propyl]isoxazol-3-yl]acetamide], the Kd at FLT3 kinase and on KIT kinase was above 50 nM throughout. Further, on FLT3-ITD, the IC50 is below 10 nM.

On to `COc1cc2nc(-c3ccc(CC(=O)Nc4cc(C(C)(C)C(F)(F)F)on4)c(F)c3)cnc2cc1O` [Example 164, 2-[2-fluoro-4-(6-hydroxy-7-methoxy-quinoxalin-2-yl)phenyl]-N-[5-(2,2,2-trifluoro-1,1-dimethyl-ethyl)isoxazol-3-yl]acetamide], for which the Kd at FLT3 kinase is below 5 nM; on KIT kinase it was 5 to 20 nM. For the same compound, on FLT3-ITD, the IC50 was below 10 nM.

With `COc1cc2nc(-c3ccc(CC(=O)Nc4cc(C(C)(C)C(F)(F)F)on4)c(F)c3)cnc2cc1OCCO` [Example 165, 2-[2-fluoro-4-[6-(2-hydroxyethoxy)-7-methoxy-quinoxalin-2-yl]phenyl]-N-[5-(2,2,2-trifluoro-1,1-dimethyl-ethyl)isoxazol-3-yl]acetamide], the Kd at FLT3 kinase and on KIT kinase was below 5 nM throughout. For the same compound, the IC50 on FLT3-ITD was below 10 nM.

`COc1cc2nc(-c3ccc(CC(=O)Nc4cc(C5(C(F)(F)F)CC5)on4)c(F)c3)cnc2cc1OCCN=[N+]=[N-]` [Example 166, 2-[4-[6-(2-azidoethoxy)-7-methoxy-quinoxalin-2-yl]-2-fluoro-phenyl]-N-[5-[1-(trifluoromethyl)cyclo-propyl]isoxazol-3-yl]acetamide]: the Kd at FLT3 kinase and on KIT kinase was below 5 nM in each case. Moreover, the IC50 on FLT3-ITD is below 10 nM.

As for `COc1cc2nc(-c3ccc(CC(=O)Nc4cc(C5(C(F)(F)F)CC5)on4)c(F)c3)cnc2cc1OCCN` [Example 167, 2-[4-[6-(2-aminoethoxy)-7-methoxy-quinoxalin-2-yl]-2-fluoro-phenyl]-N-[5-[1-(trifluoromethyl)cyclo-propyl]isoxazol-3-yl]acetamide], the Kd on FLT3 kinase and at KIT kinase was below 5 nM in each case. Moreover, the IC50 on FLT3-ITD was below 10 nM.

On to `COc1cc2nc(-c3ccc(CC(=O)Nc4cc(C5(C(F)(F)F)CC5)on4)c(F)c3)cnc2cc1OCCNC(C)=O` [Example 168, 2-[4-[6-(2-acetamidoethoxy)-7-methoxy-quinoxalin-2-yl]-2-fluoro-phenyl]-N-[5-[1-(trifluoromethyl)cyclo-propyl]isoxazol-3-yl]acetamide], for which the Kd at FLT3 kinase and on KIT kinase was below 5 nM throughout. Further, the IC50 on FLT3-ITD is below 10 nM.

For the compound `COc1cc2nc(C)c(-c3ccc(CC(=O)Nc4cc(C5(C(F)(F)F)CC5)on4)c(F)c3)nc2cc1OC` [Example 169, 2-[4-(6,7-dimethoxy-3-methyl-quinoxalin-2-yl)-2-fluoro-phenyl]-N-[5-[1-(trifluoromethyl)cyclo-propyl]isoxazol-3-yl]acetamide], the Kd on FLT3 kinase and at KIT kinase was below 5 nM in each case. Moreover, at FLT3-ITD, the IC50 was below 10 nM.

With `COc1cc2ncc(-c3ccc(CC(=O)Nc4cc(C(C)(C)C(F)(F)F)on4)c(F)c3)nc2cc1OCCO` [Example 170, 2-[2-fluoro-4-[7-(2-hydroxyethoxy)-6-methoxy-quinoxalin-2-yl]phenyl]-N-[5-(2,2,2-trifluoro-1,1-dimethyl-ethyl)isoxazol-3-yl]acetamide], the Kd at FLT3 kinase and on KIT kinase was below 5 nM in each case. Besides, the IC50 at FLT3-ITD is below 10 nM.

For the compound `COCCOc1cc2nc(-c3ccc(CC(=O)Nc4cc(C5(C(F)(F)F)CC5)on4)c(F)c3)cnc2cc1OC` [compound 77], the Kd on FLT3 kinase and on KIT kinase was below 5 nM in each case. Moreover, the IC50 at FLT3-ITD is below 10 nM.
